{"source": "paper PMC10600247", "about": "“Impact of C- and N-terminal protection on the stability, metal chelation and antimicrobial properties of calcitermin” (Scientific Reports, 2023)", "key": {"[1]": {"system": "C. albicans (ATCC 10231)", "test": "In vitro antifungal CFU assay", "format": "cell-based, Candida albicans", "conditions": "pH 5.4; for mean CFU number ± S.D.: per 0.1 mL", "procedure": "(§1) All microbes were grown at 37 °C in Tryptic Soy Broth (TSB; Biolife, Milan, Italy) or Tryptic Soy Agar plates (TSA, Biolife, Milan, Italy). Peptides were tested at a final concentration C = 0.128, 0.064, 0.032 mg/mL, in the presence or absence of ZnCl2 or CuCl2, at a M:L molar ratio 0.9:1. Briefly, all the microbes were expanded in TSB at 37 °C under agitation for 12 h and then sub-cultured by 1:10 dilution in TSB under the same conditions until reaching OD600nm = 0.3–0.4, as measured by spectrophotometric reading using a GENESYS 10S UV–Vis spectrophotometer (Thermo Scientific, Milan, Italy), corresponding to 0.9–1.2 × 10^7 colony forming units (CFU) per mL, 1.5–2 × 10^8 CFU/mL and 2.4–3.2 × 10^8 CFU/mL, for C. albicans, S. aureus and E. coli respectively. The cultures were then centrifuged at 4500 rpm for 10 min in a SL 8 centrifuge (TX-150 Rotor) (Thermo Scientific, Milan, Italy), and the cellular pellets were washed with PBS pH 5.4. Pelletized cultures were then suspended in 10 mL of PBS pH 5.4, then the suspensions were diluted to a final concentration of 10^4 CFU/mL. Aliquots of 100 µl (corresponding to 10^3 CFU) were seeded in each well of a 96-wells plate. 3 µl of TSB at pH 5.4 were added to each well to obtain a final 1.5% TSB concentration in the culture medium. Peptides were serially diluted in PBS pH 5.4 to C = 0.257, 0.128, and 0.064 mg/mL. ZnCl2 and CuCl2 solutions were added where requested to obtain a M:L ratio 0.9:1. 100 µl of the prepared peptides ± ZnCl2/CuCl2 solutions were then added to each well, obtaining the final 0.128, 0.064 and 0.032 mg/mL peptide concentrations in a total 0.2 mL volume. PBS alone and PBS + ZnCl2/CuCl2 solutions were included as controls. The plates were incubated at 37 °C on a platform rocker with slow stirring for 3 and 24 h. At the end of the incubation times, 100 µl aliquots were taken from each sample and diluted in PBS pH 5.4 to be seeded on TSA plates. Specifically, aliquots were diluted 1:10 at 3 h, and 1:200, 1:100,000 and 1:10 at 24 h, for C. albicans, E. coli, and S. aureus respectively. After incubation for 24 h at 37 °C, grown CFUs were enumerated. Samples were assayed in triplicate in two independent experiments. Student’s t-test was used for the evaluation of significance in biological tests; a p value ≤ 0.05 was considered significant."}, "[2]": {"test": "in vitro", "conditions": "human, pH 7.4", "procedure": "Each peptide (C = 1·10^–4 M) and metal complex (metal:ligand ratio 1:1) was incubated in a sample containing 1 ml of human plasma (obtained as a pool of 40 individuals from the University Hospital of Ferrara) and 1 ml of ammonium acetate buffer (pH 7.4) at 37 °C. L-phenylalaninol is added as internal standard. At regular time intervals, 200 μl aliquots were taken and enzymatic reaction was blocked by adding 300 μl of HClO4 0.5 M. The sample was then centrifugated for 6 min at 14,000 × g. The supernatant was then filtered and analysed by HPLC. The analytical column was an Agilent Poroshell 120 SB-C18 (4.6 × 100 mm, 2.7 μm, pore size 120 Å). Flow rate = 0.5 ml/min, mobile phase H2O + 0.1% v/v TFA, linear gradient from 0 to 60% of acetonitrile + 0.1% v/v TFA over 30 min for the elution of peptides, temperature 25 °C, detection wavelength 210 nm. […] Informed consent was obtained from all subjects and/or their legal guardian(s) prior to the donation of blood samples. All experimental protocols were approved by the National Research and Research Transversal Processes boards at University of Ferrara. All methods were carried out in accordance with relevant guidelines and regulations."}, "[3]": {"system": "S. aureus (ATCC 25293)", "test": "In vitro anti-S. aureus CFU assay", "format": "cell-based, Staphylococcus aureus", "conditions": "3 h, pH 5.4; for mean CFU number ± S.D.: per 0.1 mL", "procedure": "as §1"}, "[4]": {"conditions": "peptide 0.032 mg/mL + CuCl2 (0.9:1), 3 h"}, "[5]": {"conditions": "peptide 0.032 mg/mL + ZnCl2 (0.9:1), 3 h"}, "[6]": {"conditions": "peptide 0.032 mg/mL + ZnCl2 (0.9:1), 24 h"}, "[7]": {"conditions": "peptide 0.064 mg/mL + CuCl2 (0.9:1), 3 h"}, "[8]": {"conditions": "peptide 0.064 mg/mL + ZnCl2 (0.9:1), 3 h"}, "[9]": {"conditions": "peptide 0.128 mg/mL + CuCl2 (0.9:1), 3 h"}, "[10]": {"conditions": "peptide 0.128 mg/mL + ZnCl2 (0.9:1), 3 h"}, "[11]": {"conditions": "peptide 0.032 mg/mL + CuCl2 (0.9:1)"}, "[12]": {"conditions": "peptide 0.032 mg/mL + ZnCl2 (0.9:1)"}, "[13]": {"conditions": "peptide 0.064 mg/mL + CuCl2 (0.9:1)"}, "[14]": {"conditions": "peptide 0.064 mg/mL + ZnCl2 (0.9:1)"}, "[15]": {"conditions": "peptide 0.128 mg/mL + CuCl2 (0.9:1)"}}, "note": "Residues, ends and D or L forms follow the SMILES beside them.", "data": [{"compound": "CC[C@H](C)[C@H](NC(=O)[C@H](C)NC(=O)[C@@H](NC(C)=O)C(C)C)C(=O)N[C@@H](C)C(=O)N[C@@H](CC(C)C)C(=O)N[C@@H](CCCCN)C(=O)N[C@@H](C)C(=O)N[C@@H](C)C(=O)N[C@@H](Cc1c[nH]cn1)C(=O)N[C@@H](Cc1ccc(O)cc1)C(=O)N[C@@H](Cc1c[nH]cn1)C(=O)N[C@H](C(=O)N[C@@H](Cc1c[nH]cn1)C(=O)N[C@@H](CCCCN)C(=O)N[C@@H](CCC(=O)O)C(=O)O)[C@@H](C)O", "note": "[L1, Ac-VAIALKAAHYHTHKE] (Ac-VAIALKAAHYHTHKE-OH)", "values": [{"measurement": "CFU decrease/increase with respect to untreated controls", "setting": "[1]; [4]", "value": -27.3, "unit": "%"}, {"measurement": "mean CFU number ± S.D.", "setting": "[1]; [4]", "value": "40 ± 28", "unit": "CFU"}, {"measurement": "mean CFU number ± S.D.", "setting": "[1]; peptide 0.032 mg/mL + CuCl2 (0.9:1), 24 h", "value": "1,908 ± 160 CFU"}, {"measurement": "CFU decrease/increase with respect to untreated controls", "setting": "[1]; [5]", "value": "+16%"}, {"measurement": "mean CFU number ± S.D.", "setting": "[1]; [5]", "value": "67 ± 4", "unit": "CFU"}, {"measurement": "CFU decrease/increase with respect to untreated controls", "setting": "[1]; [6]", "value": -2, "unit": "%"}, {"measurement": "mean CFU number ± S.D.", "setting": "[1]; [6]", "value": "2,230 ± 326 CFU"}, {"measurement": "CFU decrease/increase with respect to untreated controls", "setting": "[1]; [7]", "value": -27.3, "unit": "%"}, {"measurement": "mean CFU number ± S.D.", "setting": "[1]; [7]", "value": "40 ± 24", "unit": "CFU"}, {"measurement": "mean CFU number ± S.D.", "setting": "[1]; peptide 0.064 mg/mL + CuCl2 (0.9:1), 24 h", "value": "1,576 ± 112 CFU"}, {"measurement": "CFU decrease/increase with respect to untreated controls", "setting": "[1]; [8]", "value": "+60%"}, {"measurement": "mean CFU number ± S.D.", "setting": "[1]; [8]", "value": "88 ± 7", "unit": "CFU"}, {"measurement": "mean CFU number ± S.D.", "setting": "[1]; peptide 0.064 mg/mL + ZnCl2 (0.9:1), 24 h", "value": "1,619 ± 165 CFU"}, {"measurement": "CFU decrease/increase with respect to untreated controls", "setting": "[1]; [9]", "value": -27.3, "unit": "%"}, {"measurement": "mean CFU number ± S.D.", "setting": "[1]; [9]", "value": "40 ± 11", "unit": "CFU"}, {"measurement": "mean CFU number ± S.D.", "setting": "[1]; peptide 0.128 mg/mL + CuCl2 (0.9:1), 24 h", "value": "1,428 ± 24 CFU"}, {"measurement": "CFU decrease/increase with respect to untreated controls", "setting": "[1]; [10]", "value": "+31%"}, {"measurement": "mean CFU number ± S.D.", "setting": "[1]; [10]", "value": "72 ± 10", "unit": "CFU"}, {"measurement": "mean CFU number ± S.D.", "setting": "[1]; peptide 0.128 mg/mL + ZnCl2 (0.9:1), 24 h", "value": "265 ± 108", "unit": "CFU"}, {"measurement": "mean CFU number ± S.D.", "setting": "[1]; peptide alone 0.032 mg/mL, 3 h", "value": "40 ± 10", "unit": "CFU"}, {"measurement": "mean CFU number ± S.D.", "setting": "[1]; peptide alone 0.032 mg/mL, 24 h", "value": "1,789 ± 225 CFU"}, {"measurement": "CFU decrease/increase with respect to untreated controls", "setting": "[1]; peptide alone 0.064 mg/mL, 3 h", "value": -1.8, "unit": "%"}, {"measurement": "mean CFU number ± S.D.", "setting": "[1]; peptide alone 0.064 mg/mL, 3 h", "value": "54 ± 6", "unit": "CFU"}, {"measurement": "mean CFU number ± S.D.", "setting": "[1]; peptide alone 0.064 mg/mL, 24 h", "value": "1,807 ± 433 CFU"}, {"measurement": "CFU decrease/increase with respect to untreated controls", "setting": "[1]; peptide alone 0.128 mg/mL, 3 h", "value": -51, "unit": "%"}, {"measurement": "mean CFU number ± S.D.", "setting": "[1]; peptide alone 0.128 mg/mL, 3 h", "value": "27 ± 0.6", "unit": "CFU"}, {"measurement": "mean CFU number ± S.D.", "setting": "[1]; peptide alone 0.128 mg/mL, 24 h", "value": "1,666 ± 229 CFU"}, {"measurement": "half-life", "setting": "[2]", "value": 2.25, "unit": "h"}, {"measurement": "CFU decrease/increase with respect to untreated controls", "setting": "[3]; [11]", "value": "+20%"}, {"measurement": "mean CFU number ± S.D.", "setting": "[3]; [11]", "value": "193 ± 54", "unit": "CFU"}, {"measurement": "CFU decrease/increase with respect to untreated controls", "setting": "[3]; [12]", "value": "+14%"}, {"measurement": "mean CFU number ± S.D.", "setting": "[3]; [12]", "value": "183 ± 24", "unit": "CFU"}, {"measurement": "CFU decrease/increase with respect to untreated controls", "setting": "[3]; [13]", "value": "+37%"}, {"measurement": "mean CFU number ± S.D.", "setting": "[3]; [13]", "value": "221 ± 66", "unit": "CFU"}, {"measurement": "CFU decrease/increase with respect to untreated controls", "setting": "[3]; [14]", "value": "+19%"}, {"measurement": "mean CFU number ± S.D.", "setting": "[3]; [14]", "value": "191 ± 6", "unit": "CFU"}, {"measurement": "CFU decrease/increase with respect to untreated controls", "setting": "[3]; [15]", "value": "+3%"}, {"measurement": "mean CFU number ± S.D.", "setting": "[3]; [15]", "value": "166 ± 35", "unit": "CFU"}, {"measurement": "mean CFU number ± S.D.", "setting": "[3]; peptide 0.128 mg/mL + ZnCl2 (0.9:1)", "value": "87 ± 8", "unit": "CFU"}, {"measurement": "CFU decrease/increase with respect to untreated controls", "setting": "[3]; peptide alone 0.032 mg/mL", "value": "+34%"}, {"measurement": "mean CFU number ± S.D.", "setting": "[3]; peptide alone 0.032 mg/mL", "value": "215 ± 68", "unit": "CFU"}, {"measurement": "CFU decrease/increase with respect to untreated controls", "setting": "[3]; peptide alone 0.064 mg/mL", "value": -4, "unit": "%"}, {"measurement": "mean CFU number ± S.D.", "setting": "[3]; peptide alone 0.064 mg/mL", "value": "155 ± 31", "unit": "CFU"}, {"measurement": "CFU decrease/increase with respect to untreated controls", "setting": "[3]; peptide alone 0.128 mg/mL", "value": "+31%"}, {"measurement": "mean CFU number ± S.D.", "setting": "[3]; peptide alone 0.128 mg/mL", "value": "211 ± 49", "unit": "CFU"}]}]}
